Experimental data: patent publication US9464064B2, “HCV helicase inhibitors and methods of use thereof” (University of Kansas, priority 2011, dated 2016)

Biological target: T1, HCV NS3 helicase NS3h_1b(con1) (Hepatitis C virus genotype 1b, UniProt Q9WMX2)
T1 construct: truncated C-terminally His-tagged NS3 proteins lacking the N-terminal protease, called NS3h; His-tag (C); made in house
Assay: MBHA screen of NCI mechanistic set library at 20 μM (percent inhibition, compound interference)
Assay type: biochemical
Conditions: compounds at 20 μM; for Inh. (%) (Inhibition): calculated from Equation 1
Outline: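 Molecular beacon-based DNA unwinding assay; compounds screened at 20 μM in triplicate, with DMSO-only negative and 500 nM dT20 positive controls. Fluorescence (ex 643/em 670 nm) was read before and 30 min after adding ATP to 1 mM. Percent inhibition came from the change relative to DMSO controls; interference from pre-ATP fluorescence versus DMSO controls.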

[1] = assay interference calculated with Equation 2 (fluorescence vs DMSO-only controls before ATP)
[2] = MBHA with DNA substrate, assay interference calculated with Equation 2

T1 sequence (Q9WMX2 1192-1657): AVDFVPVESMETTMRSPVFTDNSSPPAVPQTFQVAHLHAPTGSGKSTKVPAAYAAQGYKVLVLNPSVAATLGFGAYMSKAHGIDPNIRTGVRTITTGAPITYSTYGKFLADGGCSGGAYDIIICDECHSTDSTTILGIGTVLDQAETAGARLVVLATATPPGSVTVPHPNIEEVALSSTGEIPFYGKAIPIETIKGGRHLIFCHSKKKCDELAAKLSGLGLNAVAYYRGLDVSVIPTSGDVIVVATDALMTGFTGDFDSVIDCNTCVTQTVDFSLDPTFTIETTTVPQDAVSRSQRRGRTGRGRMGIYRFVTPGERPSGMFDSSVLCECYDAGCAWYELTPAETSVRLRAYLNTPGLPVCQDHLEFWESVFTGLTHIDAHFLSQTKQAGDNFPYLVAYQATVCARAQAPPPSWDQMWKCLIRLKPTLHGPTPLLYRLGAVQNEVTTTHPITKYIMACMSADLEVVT

| SMILES | Inh. (%) (Inhibition) (MBHA with a DNA substrate) | Int.* (Ratio) (Interference) [1] | Int.* (Ratio) (Interference) [2] | Inh. (%) (Inhibition) (MBHA with DNA substrate) | Inh. (%) (Inhibition) (MBHA with DNA substrate, 20 µM) |
| --- | --- | --- | --- | --- | --- |
| NP(=O)(Oc1c2occc2cc2ccc(=O)oc12)N(CCCl)CCCl (stereo not shown) [Compound 345081] | 9.2% | 0.95 Ratio | – | – | – |
| CC1Oc2cc3c(-c4c(O)cc(O)c5c(O)c6c(cc45)OC(C)C(C)C6=O)c(O)cc(O)c3c(O)c2C(=O)C1C (stereo not shown) [Compound 345647] | – | – | 0.80 Ratio | −17.6% | – |
| O=[Se]([O-])[O-].[Na+].[Na+] [Compound 347466] | – | – | 0.89 Ratio | 27.4% | – |
| O=C1N[C@@H]2C(=C[C@H](O)[C@@H](O)[C@H]2O)c2cc3c(cc21)OCO3 [Compound 349155] | – | – | 0.98 Ratio | 4.1% | – |
| O=C1N[C@H]2[C@H](O)[C@H](O)[C@@H](O)[C@H](O)[C@@H]2c2cc3c(c(O)c21)OCO3 [Compound 349156] | – | – | 0.95 Ratio | −10.2% | – |
| CC(O)CCC(=O)c1ccoc1 (stereo not shown) [Compound 349438] | 10.5% | 1.01 Ratio | – | – | – |
| COC1=C(C)C(=O)C2=C(C1=O)C(CO)N1C(C#N)C3CC4C(C1C2N1CCOC41)N3C (stereo not shown) [Compound 349644] | 7.1% | 0.91 Ratio | – | – | – |
| Cc1ccc(S(=O)(=O)ON=C2CC(c3ccccc3)N(C)C(c3ccccc3)C2)cc1 (stereo not shown) [Compound 351306] | – | – | 0.92 Ratio | 25.4% | – |
| COc1cc(C(C)c2cc3c(cc2OCCO)OCO3)cc(OC)c1OC (stereo not shown) [Compound 352876] | −19.4% | 1.08 Ratio | – | – | – |
| Nc1ncnc2c([C@@H]3O[C@H](CO)[C@@H](O)[C@H]3O)c[nH]c12 [Compound 352890] | 7.0% | 0.94 Ratio | – | – | – |
| CCOc1ccc(C(C)c2cc3c(cc2OC)OCO3)cc1 (stereo not shown) [Compound 353648] | – | – | 0.94 Ratio | 1.7% | – |
| C=Cc1cc(OC)c2c(c1)c(=O)oc1c2cc(OC)c2c(O)ccc(C3OC(C)C(O)C(C)(O)C3O)c21 (stereo not shown) [Compound 354844] | – | – | 0.93 Ratio | 32.6% | – |
| NC(=O)C1=C[C@H]2[C@H]3C=C[C@@]2(O)C(=O)O[C@@H]3O1 [Compound 357683] | – | – | 0.99 Ratio | 2.7% | – |
| CCN(CC)Cc1cc(N=Nc2c(O)ccc3c(N=Nc4ccc(O)c(CN(CC)CC)c4)c(O)ccc23)ccc1O.Cl [Compound 359463] | 7.3% | 0.45 Ratio | – | – | – |
| Cc1ccc2c(c1)C1(C)OC(C=CC1=O)O2 (stereo not shown) [Compound 359892] | – | – | 0.98 Ratio | −0.7% | – |
| CN1CCN(CN2C(=O)C3C4C=CC(C3C2=O)C2C3C(=O)N(CN5CCN(C)CC5)C(=O)C3C42)CC1 (stereo not shown) [Compound 361813] | – | – | 1.03 Ratio | 21.8% | – |
| COC(=O)NC1C(C)OC(OC2C/C=C(/C)C3C=CC4C(OC5CC(OC6CC(O)C(OC7CC(O)C(OC)C(C)O7)C(C)O6)C(O)C(C)O5)C(C)CC(C)C4C3(C)/C(O)=C3\C(=O)OC4(CC(C)C(CO)=CC4/C=C\2C)C3=O)CC1(C)[N+](=O)[O-] (stereo not shown) [Compound 363182] | – | – | 1.08 Ratio | 22.2% | – |
| CC1(C)C2CCC1(CS(=O)(=O)O)C(=O)C2.CN1C(c2ccccc2)CC(=NO)CC1c1ccccc1 (stereo not shown) [Compound 363744] | – | – | 1.04 Ratio | 17.2% | – |
| Cl.O=C1c2cccc(NCCCNCCO)c2C(=O)c2cccc(NCCCNCCO)c21 [Compound 363998] | – | – | 0.17 Ratio | 138.7% | – |
| N#CC(=S)Nc1ccc(F)cc1 [Compound 369317] | – | – | 0.95 Ratio | 2.8% | – |
| Cc1ccc(NC(=S)C#N)c(C)c1 [Compound 369318] | – | – | 0.95 Ratio | −0.4% | – |

| SMILES | Inh. (%) (Inhibition) (MBHA with a DNA substrate) | Int.* (Ratio) (Interference) [1] | Int.* (Ratio) (Interference) [2] | Inh. (%) (Inhibition) (MBHA with DNA substrate) | Inh. (%) (Inhibition) (MBHA with DNA substrate, 20 µM) |
| --- | --- | --- | --- | --- | --- |
| COc1ccc2c(c1)CCc1c-2n[nH]c1-c1[nH]nc2c1CCc1cc(OC)ccc1-2 [Compound 371846] | – | – | 0.86 Ratio | 2.1% | – |
| CN1C(Cl)=NS(=O)(=O)c2ccccc21 [Compound 373853] | – | – | 0.92 Ratio | 5.1% | – |
| Cc1ccc(NC(=O)c2cc3ccccc3c(N=Nc3ccccc3O)c2O)c(C)c1 [Compound 374898] | – | – | 0.97 Ratio | 3.2% | – |
| CC1(C)CCCC2(C)C3=C(CCC12)C(=O)OC3 (stereo not shown) [Compound 375294] | – | – | 0.87 Ratio | 13.9% | – |
| Nc1ccn([C@@H]2C=C(CO)[C@@H](O)[C@H]2O)c(=O)n1 [Compound 375575] | – | – | 0.93 Ratio | 12.9% | – |
| COc1cc2oc3cc(=O)cc4oc(-c5ccccc5)cc(c2c2c1CCC(c1ccccc1)O2)c43 (stereo not shown) [Compound 376248] | 11.4% | 0.80 Ratio | – | – | – |
| C/C(=N\NC(=S)N1CCN(C2CCCCCC2)CC1)c1ccccn1 [Compound 376265] | – | – | 1.02 Ratio | −13.7% | – |
| CC1(C)NC(=O)N(CCCCCCN2C(=O)NC(C)(C)C2=O)C1=O [Compound 376791] | – | – | 1.08 Ratio | −7.3% | – |
| N#CC(=S)Nc1ccc(Cl)c(Cl)c1 [Compound 379531] | 11.6% | 0.89 Ratio | – | – | – |
| C=C(CN(C)C)C(=O)c1ccccc1Cl.Cl [Compound 382007] | – | – | 0.85 Ratio | 22.9% | – |
| Br.CCN(CC)CC(C)(C)C(=O)/C=C/c1ccc(C)cc1 [Compound 382766] | – | – | 0.90 Ratio | 19.2% | – |
| C=C1CC[C@@H]2[C@](C)(CO)[C@H](O)CC[C@@]2(C)[C@@H]1C/C=C1/C(=O)OC[C@H]1O [Compound 383468] | 9.4% | 0.98 Ratio | – | – | – |
| O=C1C=Cc2ncccc2C1=O [Compound 400944] | −6.2% | 0.84 Ratio | – | – | – |
| CC1=C2C(=CC(C)(C)[C@@H]2O)C(=O)[C@](C)(O)C12CC2 [Compound 400978] | – | – | 1.10 Ratio | 17.9% | – |
| COc1cc([C@H]2c3cc4c(cc3C[C@@H]3COC(=O)[C@H]32)OCO4)cc(OC)c1OC [Compound 403148] | – | – | 0.94 Ratio | 16.8% | – |
| C[C@@H]1CC[C@H]2C(C)(C)[C@H]3C[C@@]12CC[C@@]3(C)O [Compound 403883] | −4.0% | 0.93 Ratio | – | – | – |
| Nc1ncnc2c1ncn2C1OC(CO)C(O)C1O (stereo not shown) [Compound 404241] | – | – | 1.06 Ratio | – | −11.9% |
| N#CC(=C1C=CC(=NO)C=C1)c1ccc(Cl)cc1 [Compound 405158] | 10.9% | 1.09 Ratio | – | – | – |
| OCC1OC(n2cnc3c(=S)nc[nH]c32)C(O)C1O (stereo not shown) [Compound 406021] | – | – | 1.10 Ratio | 1.7% | – |
| O=c1c(O)c(-c2ccc(O)c(O)c2)oc2cc(O)ccc12 [Compound 407010] | – | – | 0.90 Ratio | 19.4% | – |
